{"source": "patent US20250375459A1", "about": "“METHODS FOR AMELIORATING COGNITIVE IMPAIRMENT USING BILE ACID DERIVATIVES” (INTERCEPT PHARMACEUTICALS, INC., priority 2022, published 2025)", "key": {"[1]": {"system": "C57 Blk/6 mice", "experiment": "Y-maze testing of spatial memory in aged mice cohort (non-cholestatic cognitive decline)", "assay_type": "in vivo", "text": "FIG. 1 is an illustration of an aged mice cohort study plan.\nFIG. 2 is a bar graph showing the results of Y-maze testing on aged mice treated with ursodeoxycholic acid (URSO), obeticholic acid (OCA), or control at 11 and 14 months, according to the cohort study plan in FIG. 1.\n(§1) Cognitive impairment is a clinical issue with age-related cognitive decline being a substantial problem in society. C57 Blk/6 mice were aged to 9 months when they started either 6 months of Ursodeoxycholic acid or Obeticholic acid therapy or were left to age naturally to 15 months. Between 9 and 15 months of age mice develop progressive cognitive decline, by 15 months, with a novel arm time of one third indicating complete loss of short-term spatial memory (FIG. 2). Y-maze testing was repeated on the animals in each group at 11 and 14 months (FIG. 2; left bars and right bars respectively). […] The effect was not only behavioral."}, "[2]": {"system": "C57 Blk/6 mice", "experiment": "Immunofluorescence analysis of neurons and neural progenitors in aged mice", "assay_type": "in vivo", "text": "FIG. 3 is a bar graph showing immunofluorescence analysis of aged mice treated with obeticholic acid (OCA), ursodeoxycholic acid (URSO), or no supplement (wild type or WT) ad libitum each at 15 months (15 mnth) vs. 9 months (9 mnth), according to the cohort study plan in FIG. 1.\nas §1"}, "[3]": {"conditions": "preclinical data, given early in the disease course; cited from earlier work"}, "[4]": {"conditions": "longer-term experiments, aged mice"}}, "data": [{"molecule": "CC[C@H]1[C@@H](O)[C@@H]2[C@H](CC[C@]3(C)[C@@H]([C@H](C)CCC(=O)O)CC[C@@H]23)[C@@]2(C)CC[C@@H](O)C[C@@H]12", "note": "[OCA, 3α,7α-dihydroxy-6α-ethyl-5β-cholan-24-oic acid]", "values": [{"measurement": "Y-maze spatial memory performance between ages 11 and 14 months", "setting": "[1]; aged C57 Blk/6 mice, therapy started at 9 months, Y-maze at 11 and 14 months", "result": "significantly improved"}, {"measurement": "non-cholestatic (age-related) cognitive decline, loss of short-term spatial memory", "setting": "[1]; therapy given between 9 and 15 months of age in the diet", "result": "completely abrogated"}, {"measurement": "SOX2+ neural progenitor population", "setting": "[2]; compared to both aged matched groups, 15 months", "result": "significant increase"}, {"measurement": "NeuN+ neuron count, neuron loss between 9 and 15 months", "setting": "[2]; immunofluorescence, supplement from 9 to 15 months, fed ad lib", "result": "no significant neuron loss"}, {"measurement": "neuronal precursors", "setting": "[2]; [4]", "result": "significant increase"}, {"measurement": "overall neuronal cell loss", "setting": "[2]; [4]", "result": "reversal"}, {"measurement": "neurogenesis", "setting": "[2]; wild-type (WT) mice, FIG. 3", "result": "significantly increases"}, {"measurement": "neuronal loss", "setting": "[2]; wild-type (WT) mice, FIG. 3", "result": "slows"}, {"measurement": "cognitive dysfunction in cholestasis (e.g., PBC)", "setting": "[3]", "result": "reverse"}]}]}
